The results in this text go back to PubChem BioAssay (NCI).

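96-well plates; 48 h exposure; 5 concentrations. Endpoints by linear interpolation between flanking doses. Not reached: highest tested concentration assigned. Here, GI50 denotes the concentration required for 50% inhibition of growth. TGI: total growth inhibition.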 Where only a bound is given, the exact number is not on record here.

Some test systems named below: SR leukemia; HS 578T breast; OVCAR-8 ovarian; IGROV1 ovarian; NCI-H226 lung; SK-OV-3 ovarian; SK-MEL-5 melanoma; CAKI-1 renal; NCI/ADR-RES ovarian; NCI-H23 lung.
Holding throughout (assay): growth of human tumour cells (NCI), 48 h

Turning to `CC(=O)NC1CONC1=O` (stereo not drawn), the TGI in the assay on SR leukemia, in the assay with HS 578T breast, in the assay on OVCAR-8 ovarian, in the assay with IGROV1 ovarian, in the assay with NCI-H226 lung and in the assay with SK-OV-3 ovarian was above 100 µM each time. For the same molecule, the TGI with SK-MEL-5 melanoma, with CAKI-1 renal, with NCI/ADR-RES ovarian and with NCI-H23 lung was above 100 µM in each case.
Turning to `CC(C)(C)c1cc(C(=O)/C=C/c2ccc(C(=O)O)cc2)cc(C(C)(C)C)c1`, the TGI in the assay with SR leukemia came out at 6.16 µM; in the assay on HS 578T breast, 3.96 µM; in the assay with OVCAR-8 ovarian, 7.13 µM; with IGROV1 ovarian it was 12.2 µM; in the assay with NCI-H226 lung, 4.22 µM; in the assay with SK-OV-3 ovarian, 12.5 µM. For the same molecule, the TGI with SK-MEL-5 melanoma worked out at 14.7 µM; with CAKI-1 renal, 15.5 µM; in the assay on NCI/ADR-RES ovarian, 6.8 µM.
On to `NCCCOc1cc(Cl)ccc1NC(=O)c1cc2ccccc2cc1OCCCN`, for which the GI50 in the assay with SR leukemia is 1.72 µM; in the assay on HS 578T breast, 1.59 µM; in the assay on OVCAR-8 ovarian, 1.84 µM; in the assay on IGROV1 ovarian, 0.678 µM; in the assay with NCI-H226 lung, 1.22 µM; with SK-OV-3 ovarian, 1.4 µM. In addition, the GI50 in the assay on SK-MEL-5 melanoma is 1.47 µM; with CAKI-1 renal it was 1.6 µM; in the assay with NCI/ADR-RES ovarian it was 1.97 µM; in the assay with NCI-H23 lung, 1.51 µM. In addition, the TGI with SR leukemia is 4.71 µM; in the assay on HS 578T breast, 3.57 µM; in the assay with OVCAR-8 ovarian, 3.59 µM; in the assay with IGROV1 ovarian it was 2.28 µM; with NCI-H226 lung, 2.62 µM; in the assay on SK-OV-3 ovarian it was 2.72 µM. Moreover, the TGI in the assay with SK-MEL-5 melanoma stood at 2.81 µM; in the assay on CAKI-1 renal it was 3.64 µM; in the assay with NCI/ADR-RES ovarian it was 4.25 µM; with NCI-H23 lung it was 3.03 µM.
In the case of `O=C(N/N=C/c1ccc(O)cc1O)c1cccnc1`, the GI50 was 3.21 µM with SR leukemia; 7.26 µM in the assay on HS 578T breast; 2.5 µM in the assay on OVCAR-8 ovarian; 0.776 µM in the assay on IGROV1 ovarian; 4.58 µM in the assay with NCI-H226 lung; 11.4 µM with SK-OV-3 ovarian. Further, the GI50 is 3.3 µM in the assay on SK-MEL-5 melanoma, 1.76 µM in the assay on CAKI-1 renal, 3.26 µM in the assay with NCI/ADR-RES ovarian and 5.92 µM in the assay on NCI-H23 lung. The TGI in the assay on SR leukemia is above 100 µM; in the assay on HS 578T breast, 82.1 µM; with OVCAR-8 ovarian it was 96.3 µM; with IGROV1 ovarian it was 23.6 µM; with NCI-H226 lung, 84.3 µM; in the assay with SK-OV-3 ovarian, above 100 µM. The TGI is 27.6 µM in the assay on SK-MEL-5 melanoma, 45.6 µM in the assay on CAKI-1 renal, above 100 µM with NCI/ADR-RES ovarian and above 100 µM in the assay with NCI-H23 lung.
For `Clc1nc(Cl)c2ncn(Cc3ccccc3Cn3cnc4c(Cl)nc(Cl)nc43)c2n1`, the GI50 in the assay on SR leukemia is 2.17 µM; in the assay on HS 578T breast, 2.87 µM; in the assay with OVCAR-8 ovarian, 2.9 µM; in the assay on IGROV1 ovarian, 3.14 µM; with NCI-H226 lung it was 2.76 µM; in the assay with SK-OV-3 ovarian, 15.3 µM. Further, the GI50 in the assay with SK-MEL-5 melanoma was 1.81 µM; in the assay with CAKI-1 renal, 2.32 µM; with NCI/ADR-RES ovarian it was 7.04 µM; in the assay with NCI-H23 lung, 5.26 µM. In addition, the TGI in the assay with SR leukemia was determined as 5.15 µM; in the assay with HS 578T breast, 9.39 µM; in the assay on OVCAR-8 ovarian, 9.12 µM; in the assay with IGROV1 ovarian, 8.46 µM; with NCI-H226 lung, 7.16 µM; in the assay on SK-OV-3 ovarian, 33.7 µM. Besides, the TGI stood at 4.13 µM in the assay with SK-MEL-5 melanoma, 6.41 µM in the assay on CAKI-1 renal, 17.2 µM in the assay on NCI/ADR-RES ovarian and 10.7 µM in the assay with NCI-H23 lung.
For `COc1ccc2c(c1)C(C)Cc1c(ncnc1-n1cnc3ccccc31)N2C` (stereo not drawn), the GI50 in the assay on SR leukemia was 0.33 µM; in the assay on HS 578T breast it was 0.535 µM; in the assay with OVCAR-8 ovarian, 0.959 µM; in the assay with IGROV1 ovarian, 1.41 µM; with NCI-H226 lung it was 12.4 µM; with SK-OV-3 ovarian, 0.429 µM. The GI50 with SK-MEL-5 melanoma was 0.368 µM; with CAKI-1 renal it was 0.373 µM; in the assay with NCI/ADR-RES ovarian it was 0.395 µM; with NCI-H23 lung it was 0.44 µM. Moreover, the TGI in the assay with SR leukemia was 28 µM; in the assay on HS 578T breast, 37.2 µM; with OVCAR-8 ovarian it was 87.4 µM; with IGROV1 ovarian, 29.1 µM; with NCI-H226 lung it was 27.7 µM; in the assay with SK-OV-3 ovarian it was 16 µM. In addition, the TGI in the assay on SK-MEL-5 melanoma was 1.89 µM; with CAKI-1 renal, 17.2 µM; in the assay on NCI/ADR-RES ovarian, above 100 µM; with NCI-H23 lung it was 18.2 µM.
With `NCCCn1c2c(c3ccccc3c1=O)C(=O)c1ccccc1-2`, the GI50 in the assay with SR leukemia is 0.0743 µM; in the assay with HS 578T breast, 0.556 µM; in the assay on OVCAR-8 ovarian, 0.0658 µM; in the assay on IGROV1 ovarian, 0.34 µM; in the assay with NCI-H226 lung, 0.143 µM; in the assay on SK-OV-3 ovarian, 0.133 µM. Also, the results for the GI50 with SK-MEL-5 melanoma, with CAKI-1 renal and in the assay on NCI/ADR-RES ovarian were 0.105 µM, 0.0435 µM and 0.145 µM, respectively. Also, the TGI is 6.25 µM in the assay on HS 578T breast; 1.32 µM in the assay on OVCAR-8 ovarian; above 64.4 µM in the assay with IGROV1 ovarian; 1.74 µM in the assay with NCI-H226 lung; 1.94 µM in the assay with SK-OV-3 ovarian; 0.948 µM with SK-MEL-5 melanoma. For the same molecule, the TGI with CAKI-1 renal was 0.364 µM; in the assay on NCI/ADR-RES ovarian, 2.68 µM; in the assay on NCI-H23 lung, 0.977 µM.
`C=C1C(O)C2C(=C(C)C13CC3)C(=O)C(C)(C)C2OC` (stereo not drawn): the GI50 in the assay on SR leukemia is 38 µM; in the assay with HS 578T breast it was 59.6 µM; in the assay on OVCAR-8 ovarian it was 71.9 µM; with IGROV1 ovarian it was above 100 µM; in the assay with NCI-H226 lung, above 100 µM; in the assay with SK-OV-3 ovarian, above 100 µM. Moreover, the GI50 in the assay on SK-MEL-5 melanoma was 50.5 µM; with CAKI-1 renal, 71.8 µM; with NCI/ADR-RES ovarian, above 100 µM; in the assay with NCI-H23 lung, above 100 µM. The TGI in the assay with SR leukemia, with HS 578T breast, with OVCAR-8 ovarian, with IGROV1 ovarian, in the assay on NCI-H226 lung and in the assay on SK-OV-3 ovarian was above 100 µM each time. Moreover, the TGI in the assay with SK-MEL-5 melanoma, with CAKI-1 renal, with NCI/ADR-RES ovarian and with NCI-H23 lung was above 100 µM throughout.
As to `COC(=O)[C@]12CC[C@@H](C)[C@H](C)[C@@H]1C1=CC[C@@H]3[C@@]4(C)C(C=O)=C[C@@](C)(COC(=O)c5ccco5)[C@@H]4[C@H](O)C[C@@]3(C)[C@]1(C)CC2`, the GI50 in the assay on SR leukemia was 1.8 µM; with HS 578T breast, 2.72 µM; in the assay with OVCAR-8 ovarian it was 2.9 µM; in the assay with IGROV1 ovarian it was 3.03 µM; in the assay on NCI-H226 lung it was 1.94 µM; in the assay with SK-OV-3 ovarian, 3.64 µM. Besides, the GI50 with SK-MEL-5 melanoma was 0.453 µM; in the assay with CAKI-1 renal it was 2.86 µM; with NCI/ADR-RES ovarian, 2.76 µM; in the assay on NCI-H23 lung, 2.24 µM. In addition, the TGI is 5.13 µM in the assay on SR leukemia; 8.96 µM with HS 578T breast; 13.4 µM with OVCAR-8 ovarian; above 100 µM in the assay on IGROV1 ovarian; 4.14 µM in the assay on NCI-H226 lung; 18.3 µM with SK-OV-3 ovarian. Moreover, the TGI in the assay with SK-MEL-5 melanoma is 1.65 µM; in the assay with CAKI-1 renal, above 100 µM; in the assay on NCI/ADR-RES ovarian, 12 µM; in the assay with NCI-H23 lung it was 7.01 µM.
On to `C=C(C)[C@@H]1CC[C@]2(C)[C@H](CC[C@@H]3[C@@H]([C@@](C)(O)CCC=C(C)C)CC[C@]32C)[C@@]1(C)CCC(=O)O`, for which the GI50 in the assay on SR leukemia is 16.5 µM; in the assay on HS 578T breast, 24 µM; with OVCAR-8 ovarian, 19 µM; in the assay with IGROV1 ovarian it was 18.7 µM; in the assay on NCI-H226 lung, 18.1 µM; with SK-OV-3 ovarian it was 32.9 µM. Further, the GI50 in the assay on SK-MEL-5 melanoma is 15.2 µM; in the assay on CAKI-1 renal, 13.9 µM; with NCI/ADR-RES ovarian it was 20.2 µM; in the assay on NCI-H23 lung, 18.1 µM. Further, the TGI in the assay on SR leukemia is 44.7 µM; with HS 578T breast it was 86.9 µM; with OVCAR-8 ovarian it was 43 µM; in the assay on IGROV1 ovarian, 38.4 µM; with NCI-H226 lung, 37.3 µM; in the assay on SK-OV-3 ovarian, above 100 µM. The TGI in the assay with SK-MEL-5 melanoma was 29 µM; in the assay with CAKI-1 renal it was 27.7 µM; in the assay with NCI/ADR-RES ovarian, 41.3 µM; in the assay with NCI-H23 lung, 35.6 µM.
As for `NCCCOc1cc2ccccc2cc1C(=O)NCCCOc1cc2ccccc2cc1C(=O)Nc1ccc(Cl)cc1O`, the GI50 was 0.194 µM with SR leukemia; 1.86 µM in the assay on HS 578T breast; 0.24 µM in the assay on OVCAR-8 ovarian; 1.9 µM in the assay on IGROV1 ovarian; 0.477 µM in the assay on NCI-H226 lung; 1.36 µM in the assay on SK-MEL-5 melanoma. Further, the GI50 is 0.829 µM in the assay on CAKI-1 renal, 1.22 µM with NCI/ADR-RES ovarian and 0.598 µM in the assay on NCI-H23 lung. Besides, the TGI in the assay on SR leukemia was determined as 0.871 µM; in the assay with HS 578T breast it was 4.39 µM; in the assay on OVCAR-8 ovarian, 0.557 µM; in the assay with IGROV1 ovarian, 4.42 µM; in the assay on NCI-H226 lung it was 1.11 µM; in the assay with SK-MEL-5 melanoma, 2.8 µM. The TGI with CAKI-1 renal came out at 2.42 µM; in the assay on NCI/ADR-RES ovarian, 6.01 µM; in the assay with NCI-H23 lung, 2.3 µM.
Take `COc1ccc(-c2ccc(NNC(=O)c3ccc(F)cc3)nn2)cc1OC`: the GI50 in the assay with SR leukemia was above 100 µM; with HS 578T breast, 63.9 µM; with IGROV1 ovarian it was 63.3 µM; in the assay with NCI-H226 lung it was 71.8 µM; in the assay with SK-OV-3 ovarian, above 100 µM; with SK-MEL-5 melanoma it was 45 µM. Moreover, the GI50 in the assay with CAKI-1 renal is 34.3 µM; in the assay with NCI/ADR-RES ovarian, 43.2 µM; in the assay with NCI-H23 lung it was above 100 µM. The TGI in the assay on SR leukemia, with HS 578T breast, in the assay with IGROV1 ovarian, in the assay on NCI-H226 lung, in the assay on SK-OV-3 ovarian and in the assay on SK-MEL-5 melanoma was above 100 µM each time. In addition, the TGI with CAKI-1 renal, in the assay on NCI/ADR-RES ovarian and with NCI-H23 lung was above 100 µM throughout.
